Assays:
[1] = tested on: constitutive active colorectal cancer cell (CRC) Wnt pathway (HCT116-TOP); experiment: Cellular reporter assay, HCT116 Super TopFlash (TOP), constitutive active Wnt pathway; format: cell-based; settings: Homo sapiens, HCT-116; HCT116 Super TopFlash reporter cells, luciferase expression, 36 hours incubation, dilution series 50 μM to 15 nM
Procedure: In order to discover and characterize small molecules which inhibit the constitutive active colorectal cancer cell (CRC) Wnt pathway, a cellular reporter assay was employed. The corresponding assay cell was generated by transfection of the colorectal cancer cell line HCT116 (ATCC, #CCL-247) with the Super TopFlash vector (Morin, Science 275, 1997, 1787-1790; Molenaar et al., Cell 86 (3), 1996, 391-399). The HCT116 cell line is cultivated at 37° C. and 5% CO2 in DMEM/F-12 (Life Technologies, #11320-074), supplemented with 2 mM glutamine, 20 mM HEPES, 1.4 mM pyruvate, 0.15% Na-bicarbonate and 10% foetal bovine serum (GIBCO, #10270), this cancer cell line is pathophysiological relevant since it carries a deletion of position S45 in the β-catenin gene, leading to constitutive active Wnt signaling. Stable transfectants were generated by cotransfection with pcDNA3 and selection of stable transfected cells with 1 mg/ml G418.
(§1) In preparation of the assay, the two cell lines were plated 24 hours before at 10000 cells per well of a 384 micro titre plate (MTP) in 30 μL growth medium. Selective inhibitory activity for small molecules on the mutated Wnt pathway was determined after parallel incubation of both (TOP and FOP) HCT116 reporter cell lines with a compound dilution series from 50 μM to 15 nM in steps of 3.16-fold dilutions in CAFTY buffer (130 mM NaCI, 5 mM KCI, 20 mM HEPES, 1 mM MgCl2, 5 mM NaHCO3, pH 7.4) containing 2 mM Ca^2+ and 0.01% BSA. The compounds were thereby serially prediluted in 100% DMSO and thereafter in addition 50 fold into the CAFTY compound dilution buffer (described above). From this dilution 10 μL were added to the cells in 30 μL growth medium and incubated for 36 hours at 37° C. and 5% CO2. Thereafter luciferase assay buffer (1:1 mixture of luciferase substrate buffer (20 mM Tricine, 2.67 mM MgSO4, 0.1 mM EDTA, 4 mM DTT, 270 μM Coenzyme A, 470 μM Luciferin, 530 μM ATP, ph adjusted to pH 7.8 with a sufficient volume of 5M NaOH) and Triton buffer (30 mL Triton X-100, 115 mL glycerol, 308 mg Dithiothreitol, 4.45 g Na2HPO4. 2 H2O, 3.03 g TRIS HCl, ad 1I H2O, pH 7.8) was added as equal volume to the compound solution on the cells to determine luciferase expression as a measure of Wnt signaling activity in a luminometer.

HCT116-FOP = experiment: Control reporter assay, HCT116 cells with FOP control vector (non-functional TCF elements); format: cell-based; settings: Homo sapiens, HCT-116, luciferase expression, 36 hours incubation, dilution series 50 μM to 15 nM, read-out: HCT116-FOP IC50 [M] mol/L]
Procedure: In a parallel approach, HCT116 cells were cotransfected with the FOP control vector and pcDNA3. The FOP vector is identical to the TOP construct, but it contains instead of functional TCF elements a randomized, non-functional sequence. For this transfection a stable transfected cell line was generated as well.
as §1

| IC50 [1] [µM] | IC50 (HCT116-FOP) [M] | SMILES |
| --- | --- | --- |
| 0.0415 | ≥ 5e-05 | CN1CCN(CC(=O)Nc2cc(C(=O)Nc3nnc(N4CCN(C(=O)OC(C)(C)C)CC4)s3)ccc2OC(F)(F)F)CC1 [Example 2] |
| 0.086 | ≥ 5e-05 | CC(C)(C)OC(=O)N1CCN(c2nnc(NC(=O)c3ccc(OC(F)(F)F)c(NC(=O)CN4CCOCC4)c3)s2)CC1 [Example 3, tert-butyl 4-[5-({3-[(morpholin-4-ylacetyl)amino]-4-(trifluoromethoxy)benzoyl}amino)-1,3,4-thiadiazol-2-yl]piperazine-1-carboxylate] |
| 0.0655 | 4.65e-05 | COC(=O)N1CCN(c2nnc(NC(=O)c3ccc(OC(F)(F)F)c(NC(=O)CN4CCN(C)CC4)c3)s2)CC1 [Example 6, methyl 4-(5-{[3-{[(4-methylpiperazin-1-yl)pacetyl]amino}-4-(trifluoromethoxy)benzoyl]amino}-1,3,4-thiadiazol-2-yl)ppiperazine-1-carboxylate] |
| 0.83 | 1.8e-05 | CN1CCN(CC(=O)Nc2cc(C(=O)Nc3nnc(N4CCN(C(=O)C5CC5)CC4)s3)ccc2OC(F)(F)F)CC1 [Example 9] |
| 0.84 | ≥ 5e-05 | CC(C)(O)C1CCN(c2nnc(NC(=O)c3ccc(OC(F)(F)F)c(NC(=O)CN4CCOCC4)c3)s2)CC1 [Example 10] |
| 1.4 | ≥ 5e-05 | CCOC(=O)N1CCN(c2nnc(NC(=O)c3ccc(OC(F)(F)F)c(NC(=O)CN4CCOCC4)c3)s2)CC1 [Example 13, ethyl 4-[5-({3-[(morpholin-4-yl-acetyl)amino]-4-(trifluoromethoxy)benzoyl}-amino)-1,3,4-thiadiazol-2-yl]piperazine-1-carboxylate] |
| 1.99 | ≥ 5e-05 | CN(C)S(=O)(=O)N1CCN(c2nnc(NC(=O)c3ccc(OC(F)(F)F)c(NC(=O)CN4CCOCC4)c3)s2)CC1 [Example 15, N-{5-[4-(dimethylsulfamoyl)-piperazin-1-yl]-1,3,4-thiadiazol-2-yl}-3-[(morpholin-4-ylacetyl)-amino]-4-(trifluoromethoxy) benzamide] |
| 2.1 | ≥ 5e-05 | CN1CCN(CC(=O)Nc2cc(C(=O)Nc3nnc(N4CCN(C(=O)N(C)C)CC4)s3)ccc2OC(F)(F)F)CC1 [Example 16, N,N-dimethyl-4-(5-{[3-{[(4-methylpiperazin-1-yl)acetyl]-amino}-4-(trifluoromethoxy)-benzoyl]amino}-1,3,4-thiadiazol-2-yl)piperazine-1-carboxamide] |
| 2.85 | 4.1e-05 | CCOC(=O)N1CCN(c2nnc(NC(=O)c3ccc(OC(F)(F)F)c(NC(=O)CN4CCN(C)CC4)c3)s2)CC1 [Example 17, ethyl 4-(5-{[3-{[(4-methylpiperazin-1-yl)acetyl]-amino}-4-(trifluoromethoxy)-benzoyl]amino}-1,3,4-thiadiazol-2-yl)piperazine-1-carboxylate] |
| 3.15 | ≥ 5e-05 | CC(=O)N1CCN(c2nnc(NC(=O)c3ccc(OC(F)(F)F)c(NC(=O)CN4CCN(C)CC4)c3)s2)CC1 [Example 18, N-[5-(4-acetylpiperazin-1-yl)-1,3,4-thiadiazol-2-yl]-3-{[(4-methylpiperazin-1-yl)-acetyl]amino}-4-(trifluoromethoxy)benzamide] |
| 3.91 | ≥ 5e-05 | O=C(CN1CCOCC1)Nc1cc(C(=O)Nc2nnc(N3CCN(C(=O)C4CC4)CC3)s2)ccc1OC(F)(F)F [Example 20, N-{5-[4-(cyclopropylcarbonyl)-piperazin-1-yl]-1,3,4-thiadiazol-2-yl}-3-[(morpholin-4-ylacetyl)amino]-4-(trifluoromethoxy)benzamide] |
| 4.1 | ≥ 5e-05 | COC(=O)C1CCN(c2nnc(NC(=O)c3ccc(OC(F)(F)F)c(NC(=O)CN4CCOCC4)c3)s2)CC1 [Example 21, methyl 1-[5-({3-[(morpholin-4-ylacetyl)amino]-4-(trifluoromethoxy)benzoyl}-amino)-1,3,4-thiadiazol-2-yl]-piperidine-4-carboxylate] |
| 4.3 | ≥ 5e-05 | COC(=O)C1CCN(c2nnc(NC(=O)c3ccc(OC(F)(F)F)c(NC(=O)CN4CCN(C)CC4)c3)s2)CC1 [Example 22, methyl 1-(5-{[3-{[(4-methyl-piperazin-1-yl)acetyl]amino}-4-(trifluoromethoxy)benzoyl]-amino}-1,3,4-thiadiazol-2-yl)-piperidine-4-carboxylate] |
| 4.6 | ≥ 5e-05 | COC(=O)N1CCN(c2nnc(NC(=O)c3ccc(OC(F)(F)F)c(NC(=O)CN4CCOCC4)c3)s2)CC1 [Example 24, methyl 4-[5-({3-[(morpholin-4-ylacetyl)amino]-4-(trifluoromethoxy)benzoyl}-amino)-1,3,4-thiadiazol-2-yl]piperazine-1-carboxylate] |

The remaining lines, values behind:

| SMILES | IC50 [1] [µM] | IC50 (HCT116-FOP) [M] |
| --- | --- | --- |
| CN1CCN(CC(=O)Nc2cc(C(=O)Nc3nnc(N4CCCCC4)s3)ccc2OC(F)(F)F)CC1 [Example 1, 3-{[(4-methylpiperazin-1-yl)pacetyl]amino}-N-[5-(piperidin-1-yl)-1,3,4-thiadiazol-2-yl]-4-(trifluoromethoxy)benzamide] | 0.36 | ≥ 5e-05 |
| CN1CCN(CC(=O)Nc2cc(C(=O)Nc3nnc(N4CCCC4)s3)ccc2OC(F)(F)F)CC1 [Example 4, 3-{[(4-methylpiperazin-1-yl)pacetyl]amino}-N-[5-(pyrrolidin-1-yl)-1,3,4-thiadiazol-2-yl]-4-(trifluoromethoxy)benzamide] | 0.492 | ≥ 5e-05 |
| CN1CCN(CC(=O)Nc2cc(C(=O)Nc3nnc(C4CCCCC4)s3)ccc2OC(F)(F)F)CC1 [Example 5, N-(5-cyclohexyl-1,3,4-thiadiazol-2-yl)-3-{[(4-methylpiperazin-1-yl)pacetyl]amino}-4-(trifluoromethoxy)benzamide] | 0.27 | ≥ 5e-05 |
| CC1CCN(c2nnc(NC(=O)c3ccc(OC(F)(F)F)c(NC(=O)CN4CCN(C)CC4)c3)s2)CC1 [Example 7] | 0.11 | ≥ 5e-05 |
| CN1CCN(CC(=O)Nc2cc(C(=O)Nc3nnc(N4CCC(C)(O)CC4)s3)ccc2OC(F)(F)F)CC1 [Example 8, N-[5-(4-hydroxy-4-methylpiperidin-1-yl)-1,3,4-thiadiazol-2-yl]-3-{[(4-methylpiperazin-1-yl)pacetyl]amino}-4-(trifluoromethoxy)benzamide] | 0.655 | ≥ 5e-05 |
| COC1CCN(c2nnc(NC(=O)c3ccc(OC(F)(F)F)c(NC(=O)CN4CCN(C)CC4)c3)s2)CC1 [Example 11, N-{5-(4-methoxypiperidin-1-yl)-1,3,4-thiadiazol-2-yl]-3-{[(4-methylpiperazin-1-yl)acetyl]amino}-4-(trifluoromethoxy)benzamide] | 0.22 | ≥ 5e-05 |
| CN1CCN(CC(=O)Nc2cc(C(=O)Nc3nnc(N4CCC(C)(C)CC4)s3)ccc2OC(F)(F)F)CC1 [Example 12, 4-(2-{[5-{[5-(4,4-dimethylpiperidin-1-yl)-1,3,4-thiadiazol-2-yl]carbamoyl}-2-(trifluoromethoxy)phenyl]amino}-2-oxoethyl)-1-methylpiperazin-1-ium hexafluorophosphate] | 0.26 | 1.5e-05 |
| CN1CCN(CC(=O)Nc2cc(C(=O)Nc3nnc(N4CCC(O)CC4)s3)ccc2OC(F)(F)F)CC1 [Example 14, N-[5-(4-hydroxypiperidin-1-yl)-1,3,4-thiadiazol-2-yl]-3-{[(4-methylpiperazin-1-yl)acetyl]amino}-4-(trifluoromethoxy)benzamide] | 1.45 | ≥ 5e-05 |
| CN1CCN(CC(=O)Nc2cc(C(=O)Nc3nnc(N4CCN(S(=O)(=O)N(C)C)CC4)s3)ccc2OC(F)(F)F)CC1 [Example 19, N-{5-[4-(dimethylsulfamoyl)-piperazin-1-yl]-1,3,4-thiadiazol-2-yl}-3-{[(4-methylpiperazin-1-yl)acetyl]-amino}-4-(trifluoromethoxy)-benzamide] | 3.8 | ≥ 5e-05 |
| O=C(CN1CCOCC1)Nc1cc(C(=O)Nc2nnc(C3CCCCC3)s2)ccc1OC(F)(F)F [Example 23, N-(5-cyclohexyl-1,3,4-thiadiazol-2-yl)-3-[(morpholin-4-ylacetyl)amino]-4-(trifluoromethoxy)benzamide] | 4.59 | ≥ 5e-05 |
